In patent EP0265388A1, “Pyrrole derivatives, therapeutic compositions containing them and their use” (CIBA-GEIGY AG, priority 1986, dated 1988):
One block for each molecule: values may come before it.

How the values were obtained:
[1] = Delayed-Matching-to-Sample test after Harlow, double-blind against placebo; format: in vivo, Rhesusaffen
From the text: In Testmodellen an Rhesusaffen sowie an Ratten konnten weiterhin eine zusätzliche nootrope und antidepressive Wirkungskomponente festgestellt werden. […] F. Harlow et al., J. Comp. Physiol. Psychol. […] Dieser bedeutet diejenige Zeitverzögerung in Sekunden, nach der ein Affe einen Diskriminationserfolg von < 75 % hat. Weiterhin konnten die Vorzögerungszeiten für den Defizitbereich um durchschnittlich 20 Sekunden erhöht werden. Neben diesen nootropen Effekten konnten In diesem Test auch antidepressive Eigenschaften beobachtet werden. […] Die nootrope bzw. antidepressive Wirkungskomponente konnten ebenfalls bei Untersuchungen mit Ratten manifestiert werden. So wurden in einem komplizierten Tieflabyrinth analog dem Modell von J.B. Watson, Animal Education, Contrib. Psychol. Lab. Univ.

[2] = Social conflict test after Jaekel (rank hierarchy); format: in vivo, Rhesusaffen
From the text: Insbesondere konnten signifikante anxiolytische Effekte bei Verabreichung des Wirkstoffs in sozialen Konfliktsituationen bei Rhesusaffen festgestellt werden. Die experimentalle Grundlage für diesen Sozialkonflikt-Test analog J. Jaekel in Biologische Psychiatrie (Forschungsergebnisse), W. Kemp (Hrsg.), Springer Verlag, Heidelberg, 1986, ist die hierarchische Rangordnung bei Rhesusaffen. Der relative Rangstatus eines Tieres ist der bestimmende Faktor für interindividuelle Kommunikation, z.B. für Aggression oder wechselseitiges soziales Putzen. Normalerweise werden Tiere mit geringem Rangstatus von höher gestellten Grupenmitgliedern unterdrückt. Diese unterdrückten Tiere ziehen sich in eine soziale Isolierung zurück und vermeiden ängstlich jeden Sozialkontakt. Wiederholte Wirkstoffgaben in Dosen von 0,2 mg/kg p.o. bei Gruppen von 5 bzw. […] Diese Effekte werden als deutliche Anxiolyse angesehen.
Insbesondere konnten signifikante anxiolytische Effekte bei Verabreichung des Wirkstoffs in sozialen Konfliktsituationen bei Rhesusaffen im oben beschriebenen Sozialkonflikt-Test nach Jaekel festgestellt werden. […] Ebenso nahmen sie aktiv Kontakt auf und wurden zu Partnern beim Pflegen, obwohl sie vorher niemals Pflegepartner waren. Diese Effekte wurden sowohl bei Gruppen mit hohem Niveau an Sozialkontakten als auch bei Gruppen mit wenig Pflegepartnerschaften beobachtet. […] Wie zu erwarten wurde dieses ausgeprägte anxiolytische Profil bei den Standard-Beta-Rezeptoren-Blockern Oxprenolol nicht und bei Propanolol in weitaus geringerem Masse erst bei Beta-Rezeptoren blockierenden Dosierungen festgestellt. Dagegen weist das Racemat diesen Effekt in nicht ß-blockierend wirkenden Dosierungen auf.

[3] = test system: stratialer Dopamin-Rezeptoren; test: In vivo 3H-spiperone binding screening model after Bischoff; set-up: species or system Ratten; conditions: rats
From the text: Ferner bewirkt (+)-1-Isopropylamino-3-[o-(pyrrol-1-yl)-phenoxy]-2-propanol an Ratten Im Screening-Modell nach S. Bischoff et al., Europ.

[4] = Three-centre double-blind study in inpatients; format: in vivo, Menschen
From the text: Ueberraschend ist also die Tatsache, dass das anxiolytische Profil dieses Wirkstoffs auch bei nicht-betarezeptorenblockierend wirkenden Dosierungen sowohl im Tiermodell als auch am Menschen überaus ausgeprägt ist. Letzteres bestätigen Untersuchungen an stationären Patienten.
Entsprechendes ist bei der Verwendung des (+)-Enantiomeren zu erwarten.

[5] = Complicated deep maze after Watson; format: in vivo, Ratten
From the text: In Testmodellen an Rhesusaffen sowie an Ratten konnten weiterhin eine zusätzliche nootrope und antidepressive Wirkungskomponente festgestellt werden. So bewirkte (+)-1-isopropylamino-3-[o-(pyrrol-1-yl)-phenoxy]-2-propanol in einer Doppelblindstudie bei Rhesusaffen gegen Placebo im "Delayed-Matchingto-Sample-Test" (Zeit-verzögerte-Wahl-nach-Muster) gemäss der Methodik von H. F. Harlow et al., J. Comp. Physiol. Psychol. […] Dieser bedeutet diejenige Zeitverzögerung in Sekunden, nach der ein Affe einen Diskriminationserfolg von < 75 % hat. Weiterhin konnten die Vorzögerungszeiten für den Defizitbereich um durchschnittlich 20 Sekunden erhöht werden. Neben diesen nootropen Effekten konnten In diesem Test auch antidepressive Eigenschaften beobachtet werden. […] Die nootrope bzw. antidepressive Wirkungskomponente konnten ebenfalls bei Untersuchungen mit Ratten manifestiert werden. So wurden in einem komplizierten Tieflabyrinth analog dem Modell von J.B. Watson, Animal Education, Contrib. Psychol. Lab. Univ.

[6] = Geller test (foot-shock induced conflict, lever pressing for food); format: in vivo, Ratten; conditions: for anxiolytische Wirkung im Geller-Test: overall assessment
From the text: Das charakteristische anxiolytische Profil von (+)-1-Isopropylamino-3-[o-(pyrrol-1-yl)-phenoxy]-2-propanol ergibt sich beispielsweise aus den Ergebnissen des Geller-Testes, [J. Geller. Psychopharmacologia, 3, S. 374 ff. […] Bei diesem Test werden die Füsse der Verscuchstiere beim Bedienen eines Hebels zur Nahrungsfreigabe periodisch Elektroschocks ausgesetzt. Normalerweise wird nur bei Verabreichung von hohen Dosen an Anxiolytika die Reaktion auf die Bestrafung unterdrückt. Bei einer Gruppe von Ratten, die eine Dosis ab 3 mg/kg p.o. von (+)-1-lsopropylamino-3-[o-(pyrrol-1-yl)-phenoxy]-2-propanol erhalten haben, reagieren bereits ab etwa 80 % der Versuchstiere mit einem markanten Anstieg der Hebelbedienungshäufigkeit während der Schockphase.
Bei einer Gruppe von 29 Ratten, die eine Dosis von 20 mg/kg p.o. von 1-lsopropylamino-3-[o-(pyrrol-1-yl)-phenoxy]-2-propanol erhalten haben, reagieren bereits 50 % der Versuchstiere mit einem markanten Anstieg der Hebelbedienungshäufigkeit während der Schockphase, wobei der Anstieg bei einzelnen Tieren 300 % betrug.

[7] = test system: präsynaptischen Serotonin-1 B-Rezeptors (5-HTIB); test: Antagonism at the presynaptic serotonin 1B receptor; conditions: for Selektivität (5-HT1B gegenüber 5-HT1A): compared with the racemate
[8] = Inhibition of hyperactivity of rats kept in isolation (locomotor and exploratory behaviour, after Weinstock); format: in vivo, Ratten; conditions: isolated rats
Procedure: Das charakterische anxiolytische Profil von 1-Isopropylamino-3-[o-(pyrrol-1-yl)-phenoxyj-2-propanol ergibt sich beispielsweise aus der Hemmung der Hyperaktivität von Ratten, die in Isolation gehalten werden, gemessen an ihrem lokomotorischen und exploratorischen Verhalten, wobei maximale Effekte bei einer Dosierung von 0,01-0,1 mg/kg p.o. erzielt werden [analog der Methodik von R. Weinstock et al., Psychopharmacologia 30, 241ff. (1973). Die Hyperaktivität von isoliert gehaltenen Ratten konnte dagegen im Falle des Propranolols erste bei einer Dosis von 0,3 mg/kg p.o. maximal gehemmt werden.

[9] = repeated doses of 0,2 mg/kg p.o., groups of 5 or 7 monkeys
[10] = repeated doses of 0,1-0,3 mg/kg p.o., groups of 7 monkeys

SMILES: CC(C)NCC(O)COc1ccccc1-n1cccc1 (single isomer, unassigned; (+)) [(+)-1-Isopropylamino-3-[o-(pyrrol-1-yl)-phenoxy]-2-propanol]
Erfolgsrate im Defizitbereich ([1]; 1 mg/kg p.o., against placebo, deficit range = delay after which discrimination success is < 75 %): signifikant erhöhte Erfolgsrate
Motivation und Antrieb (antidepressive Eigenschaften) ([1]; rhesus monkeys): deutliche Motivations-und Antriebssteigerungen
Erhöhung der Vorzögerungszeiten für den Defizitbereich ([1]; rhesus monkeys, average increase): 20 Sekunden
Sozialkontakte der rangniedrigsten Affen [2, 9]: nahmen sie aktiv soziale Kontakte auf
ängstliches Verhaltensmuster der Affen, die in der Rangordnung am niedrigsten eingeordnet sind [2, 9]: signifikanten Reduktion
^3H-Splperon-Bindung stratialer Dopamin-Rezeptoren [3]: dosisabhängig Erhöhungen
cardiovaskuläre Effekte (ß-Blockade) ([4]; expected for the (+)-enantiomer, not tested): Entsprechendes
Orientierungsleistungen (Fehlerquote; nootrope Wirkung) ([5]; rats): deutliche Verbesserung der Orientierungsleistungen
Laufzeiten vom Start zum belohnten Ziel ([5]; rats, compared with placebo animals): signifikant verkürzten Laufzeiten
Versuchstiere mit einem markanten Anstieg der Hebelbedienungshäufigkeit während der Schockphase ([6]; rats, dose from 3 mg/kg p.o.): ~80%
anxiolytische Wirkung im Geller-Test ([6]; rats): starkes Anxiolytikum

SMILES: CC(C)NCC(O)COc1cccc2ccccc12 (stereo not shown) [Propranolol, reference compound]
Sozialkontakte der Rhesusaffen mit niedrigem Rangstatus ([2]; 0,5-10,0 mg/kg p.o.): relativ wenig beeinflusst
Selektivität (5-HT1B gegenüber 5-HT1A) [7]: weniger selektiv
Dosierung, bei der maximale Effekte (Hemmung der Hyperaktivität) erzielt werden [8]: 0,3 mg/kg p.o.
Verhaltensänderung im Fussschocktest ([6]; rats, 20 mg/kg p.o.): keiner signifikanten Verhaltensänderung

Selektivität (5-HT1B gegenüber 5-HT1A) [7]: weniger selektiv
SMILES: C=CCOc1ccccc1OCC(O)CNC(C)C (stereo not shown) [Oxprenolol, reference compound]
Sozialkontakte von Affen mit geringer Rangordnung ([2]; 0,3-3,0 mg/kg p.o.): keine Steigerung der Sozialkontakte

SMILES: CC(C)NCC(O)COc1ccccc1-n1cccc1 (racemic) [1-Isopropylamino-3-[o-(pyrrol-1-yl)-phenoxy]-2-propanol]
nootrope und antidepressive Eigenschaften ([1]; racemate, at the doses used): keine aussagefähigen Beobachtungen
Sozialkontakte der rangniedrigsten Affen [2, 10]: Zunahme der Sozialkontakte
ängstliches Verhaltensmuster der Affen, die in der Rangordnung am niedrigsten eingeordnet sind [2, 10]: signifikanten Reduktion des ängstlichen Verhaltensmuster
Antagonismus am präsynaptischen Serotonin-1 B-Rezeptor [7]: potenter selektiver Antagonist
Dosierung, bei der maximale Effekte (Hemmung der Hyperaktivität) erzielt werden [8]: 0,01-0,1 mg/kg p.o.
cardiovaskuläre Effekte (ß-Blockade) ([4]; humans, low daily doses such as 2 mg and 4 mg p.o.): keine cardiovaskulären Effekte
anxiolytische Effekte ([4]; more than 100 inpatients, daily dose 2 mg p.o. compared with daily dose 4 mg p.o.): signifikante, mindestens ebenso potente anxiolytische Effekte
nootrope und antidepressive Eigenschaften ([5]; racemate, at the doses used): keine aussagefähigen Beobachtungen
Versuchstiere mit einem markanten Anstieg der Hebelbedienungshäufigkeit während der Schockphase ([6]; group of 29 rats, 20 mg/kg p.o.): 50%
Anstieg der Hebelbedienungshäufigkeit bei einzelnen Tieren ([6]; rats, 20 mg/kg p.o., shock phase): 300%
anxiolytische Wirkung im Geller-Test ([6]; rats): starkes Anxiolytikum
